The source of these data is article PMC8518537, “N‐(Anilinoethyl)amide Melatonergic Ligands with Improved Water Solubility and Metabolic Stability” (Chemmedchem, 2021).

Converted amounts (≈) assume the structure as drawn. Read-outs that look alike come from different tables or passages of the source.

One data set deals with human MT1 receptors (Homo sapiens, UniProt P48039). The data set is described as follows: Radioligand binding, 2-[125I]iodomelatonin competition at MT1. The settings on record: cloned human MT1 in CHO cells; from IC50 by Cheng-Prusoff; mean±SD of three determinations; read-out: MT1 K i.
human MT1 receptors, sequence (P48039 whole entry): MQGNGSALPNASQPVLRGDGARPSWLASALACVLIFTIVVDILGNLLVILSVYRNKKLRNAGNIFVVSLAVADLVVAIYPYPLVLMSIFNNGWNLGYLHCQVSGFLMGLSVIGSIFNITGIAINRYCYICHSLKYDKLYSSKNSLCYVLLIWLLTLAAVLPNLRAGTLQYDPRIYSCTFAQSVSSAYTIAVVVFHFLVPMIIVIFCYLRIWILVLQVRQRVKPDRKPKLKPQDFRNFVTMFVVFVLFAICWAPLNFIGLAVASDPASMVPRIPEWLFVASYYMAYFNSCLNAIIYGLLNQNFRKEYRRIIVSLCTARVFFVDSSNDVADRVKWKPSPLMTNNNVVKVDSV
A further data set has as its target T1, human MT2 receptors (Homo sapiens, UniProt P49286).
T1 sequence (P49286 1-362): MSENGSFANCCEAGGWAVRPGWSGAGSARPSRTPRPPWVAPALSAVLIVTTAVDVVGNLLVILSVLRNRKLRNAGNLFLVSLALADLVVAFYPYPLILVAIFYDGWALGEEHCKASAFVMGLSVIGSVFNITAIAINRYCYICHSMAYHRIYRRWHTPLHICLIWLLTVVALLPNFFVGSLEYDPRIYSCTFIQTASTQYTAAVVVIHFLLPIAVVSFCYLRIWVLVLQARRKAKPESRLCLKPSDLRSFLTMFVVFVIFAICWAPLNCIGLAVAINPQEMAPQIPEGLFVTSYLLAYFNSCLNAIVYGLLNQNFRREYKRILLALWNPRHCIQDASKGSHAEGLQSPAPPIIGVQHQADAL
As to the kind of experiment: Radioligand binding, 2-[125I]iodomelatonin competition at MT2. The settings on record: cloned human MT2 in CHO cells; from IC50 by Cheng-Prusoff; mean±SD of three determinations; read-out: MT2 K i.

Data set [1] can be described thus: Thermodynamic solubility, shake flask method. It is filed as physicochemical. To be noted: thermodynamic from solid, room temperature overnight, mean±SD, triplicate.
Method: Thermodynamic solubility values were measured in two different buffers (pH 1.0; pH 7.4) by the shake flask method.[65] 1 mg of each compound was placed in 1 mL of appropriate buffer and shaken at room temperature overnight. The resulting suspension was centrifuged (10 min, 10000 g, 20 °C) and the supernatant analyzed by HPLC‐UV. Solubility values were interpolated from calibration curves prepared from concentrated DMSO stock solutions of each compound. Reported solubility values are the mean of three measurements±standard deviation.
It consisted of a LC‐10ADvp solvent delivery module, a 20 μL Rheodyne sample injector (Rheodyne LLC, Rohnert Park, CA, USA) and a SPD‐10Avp UV‐VIS detector. PeakSimple 2.83 software was employed for data acquisition and HPLC peak integration. […] Elution conditions were optimized for each compound at a flow rate of 1 mL min^−1 employing mobile phases consisting of water and acetonitrile at different percentages, while UV detection was set at λ = 254 nm.
The nature of data set [2]: Metabolic stability in rat liver microsomes. Type of data set: in vitro ADME. The settings on record: for CLi Rat LM (intrinsic clearance) / half-life at 5 μM: rat liver microsomes 1 mg protein/mL, 5 μM compound, mean±SD; for CLi Rat LM (intrinsic clearance): 37 °C; for half-life at 5 μM: NADPH-regenerating system, pH 7.4, 37 °C, read-out: t 1/2 Rat LM. Background: Liver microsomes are a subcellular fraction often used to study metabolism.
Method: (§1) Each compound (final concentration: 5 μM) was incubated in the presence of rat or human liver microsomes (final concentration: 1 mg protein/mL) and of a NADPH‐regenerating system (final concentrations: 2 mM NADP^+, 10 mM glucose‐6‐phosphate, 0.4 U mL^−1 glucose‐6‐phosphate dehydrogenase, 5 mM MgCl2) in a 10 mM Phosphate Buffered Saline (PBS) solution, pH 7.4, at 37 °C. Compound was added after a 10 min pre‐incubation at 37 °C and. at stated time points, depending on compound kinetics, sample aliquots were withdrawn, metabolic reaction was quenched by acetonitrile addition (1 : 2), and after a centrifugation step (9000 g, 10 min, 4 °C) the supernatant was analyzed by HPLC‐UV‐VIS.
(§2) Apparent half‐lives (t1/2 in min) for the metabolic clearance of compounds were calculated from the pseudo first‐order rate constants (k) obtained by linear regression of the log chromatographic peak area versus time plots and are reported as means of three experiments±standard deviation. Intrinsic clearance (CLi) values of the compounds were calculated using the following equation: CLi (μL×min^−1×mg protein^−1)=k×V where V (μL×mg protein^−1)=incubation volume/mg protein added.
(§3) Pooled rat and human liver microsomes (20 mg/mL) were supplied by BD Biosciences (BD Biosciences, Woburn, MA, USA). Acetonitrile and methanol were HPLC grade and were supplied by Sigma‐Aldrich (Sigma‐Aldrich srl, Milan, Italy). Water was freshly bidistilled before use. All other reagents were purchased in the highest purity available.
(§4) PeakSimple 2.83 software was employed for data acquisition and HPLC peak integration. HPLC columns were a RP‐C18 Supelco Discovery (Supelco, Bellefonte, PA, USA), 5 μm, 150×4.6 mm i.d. for all compounds except 13, and a Phenomenex Gemini, 5 μm, 150×4.6 mm i.d. for compound 13 (Phenomenex). Elution conditions were optimized for each compound at a flow rate of 1 mL min^−1 employing mobile phases consisting of water and acetonitrile at different percentages, while UV detection was set at λ = 254 nm. For compound 13, the mobile phase consisted of a 10 mM ammonium acetate buffer pH 7.0 and methanol and the UV detection was set at λ = 281 nm.

Data set [3] in a line: Metabolic stability in human liver microsomes. It is filed as in vitro ADME. To be noted: for CLi Human LM (intrinsic clearance) / half-life at 5 μM: human liver microsomes 1 mg protein/mL, 5 μM compound, mean±SD; for CLi Human LM (intrinsic clearance): 37 °C; for half-life at 5 μM: NADPH-regenerating system, pH 7.4, 37 °C, read-out: t 1/2 Human LM.
Method: as §1, §2, §3, §4
The nature of data set [4]: Experimental lipophilicity, shake-flask n-octanol/water. Type of data set: physicochemical. To be noted: n-octanol/water (MOPS buffer); n-octanol/50 mM MOPS buffer pH 7.4, 25±1 °C; mean±SD of three; read-out: Log D oct,7.4.
Method: Chosen buffer was 50 mM zwitterionic MOPS (3‐morpholinopropanesulfonic acid), pH 7.4 to avoid ionic couple partitioning, with ionic strength adjusted to 0.15 M by KCl addition. Compounds, after partitioning overnight, and dilution of both phases with methanol, were dosed in the HPLC‐UV system, as detailed below. Reported log D oct,7.4 values are the mean of three measurements±standard deviation.
HPLC columns were a RP‐C18 Supelco Discovery (Supelco, Bellefonte, PA, USA), 5 μm, 150×4.6 mm i.d. for all compounds except 13, and a Phenomenex Gemini, 5 μm, 150×4.6 mm i.d. for compound 13 (Phenomenex). Elution conditions were optimized for each compound at a flow rate of 1 mL min^−1 employing mobile phases consisting of water and acetonitrile at different percentages, while UV detection was set at λ = 254 nm. For compound 13, the mobile phase consisted of a 10 mM ammonium acetate buffer pH 7.0 and methanol and the UV detection was set at λ = 281 nm.
Where [5] appears, read: buffer pH 1.0, simulated gastric fluid, pH 1.0 buffer, read-out: Solubility pH 1.0.
Where [6] appears, read: buffer pH 7.4, aqueous buffer, pH 7.4 buffer, read-out: Solubility pH 7.4.

Method for human MT1 receptors: (§5) The in vitro pharmacology experiments were conducted at Cerep (Celle‐Lévescault, France) following radioligand binding and cellular functional assays developed elsewhere.[60, 61, 62]
(§6) After incubation, the % of radioligand binding inhibition was determined via a scintillation counting method. The radioligand binding experiments were performed in triplicate. IC50 values were determined by nonlinear regression analysis of the competition curves using Hill equation curve fitting. The pK i values were calculated from the IC50 values in accordance with the Cheng‐Prusoff equation.[28]
Method for human MT2 receptors: as §5, §6

Turning to `COc1cccc(N(CCNC(C)=O)c2ccccc2)c1` [Compound 2, N‐{2‐[(3‐methoxyphenyl)phenylamino]ethyl}acetamide, reference compound], the Ki came out at 1.6 ± 0.14 nM on human MT1 receptors and 0.29 ± 0.1 nM on human MT2 receptors. Besides, the solubility (as a rule, the concentration that dissolves in the medium under given conditions) was 125 ± 5 µg/mL (≈ 440 µM) in data set [1] (setting [5]) and 104 ± 5 µg/mL (≈ 366 µM) in data set [1] (setting [6]). Besides, the “CLi Rat LM (intrinsic clearance)” value in data set [2] turned out to be 408±85 μL min^−1 mg prot^−1. The results for the half-life at 5 μM in data set [2] and in data set [3] were 1.7 ± 0.4 min and 40.8 ± 1.1 min, respectively. Besides, the “CLi Human LM (intrinsic clearance)” value in data set [3] came to 17±1 μL min^−1 mg prot^−1. Besides, in data set [4], the logD was 2.93 ± 0.01.
As for `CC(=O)NCCN(c1ccc(F)cc1)c1cccc(Br)c1` [Compound 3, N‐{2‐[(3‐bromophenyl)‐(4‐fluorophenyl)amino]ethyl}acetamide, reference compound], the figures for the Ki at human MT1 receptors and on human MT2 receptors were more than 100 nM and 1.4 ± 0.08 nM, respectively. The solubility in data set [1] (setting [5]) was 6.9 ± 0.1 µg/mL (≈ 19.6 µM); in data set [1] (setting [6]), 5.1 ± 0.2 µg/mL (≈ 14.5 µM). Besides, in data set [2], the “CLi Rat LM (intrinsic clearance)” value was 38.1±6.0 μL min^−1 mg prot^−1. Also, the values for the half-life at 5 μM in data set [2] and in data set [3] were 18.2 ± 2.8 min and 71.2 ± 3.4 min, respectively. Besides, in data set [3], the “CLi Human LM (intrinsic clearance)” value is given as 9.7±0.5 μL min^−1 mg prot^−1. Moreover, the logD in data set [4] amounted to 3.84 ± 0.05.
For the compound `COc1cccc(N(CCNC(N)=O)c2ccccc2)c1` [Compound 6 a, 1‐{2‐[(3‐Methoxyphenyl)phenylamino]ethyl}urea], the Ki on human MT1 receptors was more than 100 nM; on human MT2 receptors, 10 ± 0.13 nM. The solubility in data set [1] (setting [5]) is 364 ± 3.7 µg/mL (≈ 1280 µM); in data set [1] (setting [6]), 311.4 ± 2.6 µg/mL (≈ 1090 µM). For the same compound, in data set [2], the “CLi Rat LM (intrinsic clearance)” value is listed as 44.2±1.0 μL min^−1 mg prot^−1. Moreover, the half-life at 5 μM in data set [2] came to 15.7 ± 0.4 min; in data set [3] it was 77.5 ± 13.4 min. Further, the “CLi Human LM (intrinsic clearance)” value in data set [3] is listed as 9.1±1.5 μL min^−1 mg prot^−1. In addition, the logD in data set [4] was 2.65 ± 0.02.
On to `CCNC(=O)NCCN(c1ccccc1)c1cccc(OC)c1` [Compound 6 b, 1‐Ethyl‐3‐{2‐[(3‐methoxyphenyl)phenylamino]ethyl}urea], for which the Ki was determined as 20 ± 0.45 nM at human MT1 receptors and 0.65 ± 0.03 nM on human MT2 receptors. The solubility was 14.9 ± 0.6 µg/mL (≈ 47.5 µM) in data set [1] (setting [5]) and 10.2 ± 1.7 µg/mL (≈ 32.5 µM) in data set [1] (setting [6]). Also, the “CLi Rat LM (intrinsic clearance)” value in data set [2] is 98.1±6.8 μL min^−1 mg prot^−1. Besides, the values for the half-life at 5 μM in data set [2] and in data set [3] were 7.1 ± 0.5 min and 15.4 ± 1 min, respectively. In data set [3], the “CLi Human LM (intrinsic clearance)” value came to 45.1±3.0 μL min^−1 mg prot^−1. In addition, in data set [4], the logD turned out to be 3.3 ± 0.02.
`COc1cccc(N(CCNC(C)=O)CCc2ccccc2)c1` [Compound 12, N ‐{2‐[(3‐Methoxyphenyl)(phenethyl)amino]ethyl}acetamide]: the Ki on human MT1 receptors was more than 100 nM; at human MT2 receptors, 2.1 ± 0.15 nM. In addition, the solubility is more than 1000 µg/mL in data set [1] (setting [5]) and 110 ± 6.9 µg/mL (≈ 351 µM) in data set [1] (setting [6]). In addition, the “CLi Rat LM (intrinsic clearance)” value in data set [2] was 247.3±34.2 μL min^−1 mg prot^−1. Further, the half-life at 5 μM in data set [2] is 2.9 ± 0.5 min; in data set [3], 7.2 ± 0.5 min. Moreover, the “CLi Human LM (intrinsic clearance)” value in data set [3] came to 96.7±6.3 μL min^−1 mg prot^−1. Besides, in data set [4], the logD came to 3.44 ± 0.02.
As to `COc1cccc(N(CCNC(C)=O)c2ccncc2)c1` [Compound 13, N ‐{2‐[(3‐Methoxyphenyl)(pyridine‐4‐yl)amino]ethyl}acetamide], the Ki on human MT1 receptors and at human MT2 receptors was more than 100 nM throughout. Besides, the solubility in data set [1] (setting [5]) was more than 1000 µg/mL; in data set [1] (setting [6]), 1020 ± 93.7 µg/mL (≈ 3570 µM). Besides, the logD in data set [4] came to 0.41 ± 0.01.
Take `COc1cccc(N(CCNC(C)=O)c2cccc(O)c2)c1` [Compound 15, N ‐{2‐[(3‐Hydroxyphenyl)(3‐methoxyphenyl)amino]ethyl} acetamide]: the values for the Ki at human MT1 receptors and at human MT2 receptors were 53 ± 1.6 nM and 1.4 ± 0.15 nM, respectively. In addition, the values for the solubility in data set [1] (setting [5]) and in data set [1] (setting [6]) were 95.9 ± 4.2 µg/mL (≈ 319 µM) and 119 ± 2.8 µg/mL (≈ 395 µM), respectively. Also, the “CLi Rat LM (intrinsic clearance)” value in data set [2] is 217.3±44.6 μL min^−1 mg prot^−1. In addition, the figures for the half-life at 5 μM in data set [2] and in data set [3] were 3.3 ± 0.6 min and 66.2 ± 2.8 min, respectively. Moreover, the “increase of rat microsomal stability compared to UCM765” value in data set [2] (rat liver microsomes, versus UCM765) is listed as “approximately 1.5 fold”. Moreover, the “CLi Human LM (intrinsic clearance)” value in data set [3] was 10.5±0.4 μL min^−1 mg prot^−1. In addition, the “increase of human microsomal stability compared to UCM765” value in data set [3] (human liver microsomes, versus UCM765) is “approximately 1.5 fold”. Besides, the logD in data set [4] is 2.42 ± 0.02.
Regarding `COc1ccc(-c2ccccc2)c(N(C)CCNC(C)=O)c1` [Compound 18, N ‐{2‐[(4‐Methoxy‐[1,1’‐biphenyl]‐2‐yl)(methylamino)]ethyl}acetamide], the values for the Ki on human MT1 receptors and on human MT2 receptors were 32 ± 0.8 nM and 1.7 ± 0.13 nM, respectively. Further, the solubility was more than 1000 µg/mL in data set [1] (setting [5]) and 340 ± 9.7 µg/mL (≈ 1140 µM) in data set [1] (setting [6]). Also, in data set [2], the “CLi Rat LM (intrinsic clearance)” value is recorded as 468.9±12.9 μL min^−1 mg prot^−1. Further, the half-life at 5 μM in data set [2] is 1.5 ± 0.1 min; in data set [3], 11.2 ± 0.7 min. Besides, in data set [3], the “CLi Human LM (intrinsic clearance)” value is on record as 61.9±3.8 μL min^−1 mg prot^−1. Besides, in data set [4], the logD turned out to be 3.11 ± 0.02.
